# Several values for one entry are separate records, joined by “and”; a condition that tells them apart may be missing. Equal values may be shown once. Where a name gives a salt, the structure may show the parent alone.
# Legend:
# IRS2−/− female mice [1] = assay: Ovulation study: phase of the estrous cycle by vaginal smears (Papanicolaou); assay type: in vivo, mouse; set-up: key to phase of the estrous cycle: A: anestrus; D: diestrus; P: proestrus; E: estrus; M: metestrus; conditions: for phase of the estrous cycle: individual IRS2−/− female mice, dihydrate
# From the text: (§1) 10 IRS2^−/− female mice of ages comprised between 6 and 8 weeks. 6 “wild-type” (IRS2^wt) male mice of ages comprised between 6 and 8 weeks.
# (§2) The female and male mice were housed separately in normal conditions, i.e., 12-hour light/darkness cycle and controlled moisture and temperature. The animals were voluntarily fed (also named ad libitum) with a standard feed diet.
# (§3) After a period of acclimation, the IRS2^−/− female mice were housed in groups of 4-6 mice/cage. Tungstate-free drinking water was administered to the animals during the pre-treatment phase (2 weeks).
# (§4) Sodium tungstate was administered in the drinking water (ad libitum) by means of a 2 mg/ml solution of sodium tungstate dihydrate (marketed by Carlo Erba) in distilled water after the pre-treatment phase (day 0 of treatment) and up to 4 weeks before sacrificing the animals. The daily dose of sodium tungstate ingested by the mice is about 180 mg/kg of body weight.
# During the pre-treatment period and during the first 3 weeks of treatment, vaginal smears were performed in 6 randomly chosen female mice on days −8; −5; −2; −1; 7; 8; 14; 15 and 22 to determine the phase of the estrous cycle they were in.
# Between […] of saline solution was introduced into the vagina of the mice with a Pasteur pipette. The vaginal exudate was collected with the same pipette and deposited on a slide. Once air-dried, it was fixed and stained with the Papanicolaou technique.
# The Papanicolaou technique comprises staining the vaginal smears fixed on the slide as follows: • 10 immersions in 50% v/v alcohol; • immersing in Harris hematoxylin solution for 3 minutes; • rinsing with running water; • 10 immersions in acid alcohol (1% hydrochloric acid); • rinsing with running water; • 10 immersions in 95% v/v alcohol; • immersing in OG-6 solution for 30 seconds; • 10 immersions in 96% v/v alcohol; • immersing in eosin solution for 1 minute; • 10 immersions in 96% v/v alcohol; • 10 immersions in 86% v/v alcohol; and • 10 immersions in xylol.
# The preparations were analyzed by trained staff using a code in a single-blind manner to eliminate observer bias.
# The samples were identified in the following phases: diestrus, proestrus, estrus, metestrus, anestrus or non-evaluable. The cyclicality of the four phases in periods of 4 to 6 days is an indicator of a normal estrous cycle, whereas the absence of this cyclicality and the persistence in anestrus, diestrus or proestrus phases are indicators of the absence of the estrous cycle.
# IRS2−/− female mice [2] = assay: Implantation and pregnancy study after mating with IRS2wt male mice; assay type: in vivo, mouse; conditions: for mean number of young/implanted embryos per female mouse pregnancy: treated IRS2−/− female mice
# From the text: as §1, §2, §3, §4
# After the first three weeks of treatment, the IRS2^−/− female mice were housed in cages in pairs together with an IRS2^wt male mouse continuously.
# The mice were observed daily in search of signs of pregnancy or birth. After 4 weeks, the male mice were exchanged between the cages and kept in said cages for another 4 weeks.
# The administration of tungstate was maintained for the 8 weeks in which the male and female mice were housed together. After these 8 weeks, treatment was withdrawn and the male and female mice were housed together for 4 additional weeks.
# After this period lapsed, the female mice were sacrificed and biopsied in search of indications of pregnancy.
# After the mating period of the method in section B lapsed, the female mice were sacrificed and biopsied in search of indications of pregnancy.
# [3] = Glycemia study (blood glucose after 6 hours of fasting, glucose sensor); assay type: in vivo, mouse; conditions: for glycemia, Average: average of 6 IRS2−/− female mice; for variation in glycemia during administration: first 12 days of treatment, IRS2−/− female mice; for variation in glycemia during administration / glycemia: dihydrate; for glycemia: individual IRS2−/− female mice
# Method: (§5) 6 IRS2^−/− female mice of ages comprised between 6 and 8 weeks.
# (§6) The female mice were housed in normal conditions, i.e., 12-hour light/darkness cycle and controlled moisture and temperature. The animals were voluntarily fed (also named ad libitum) with a standard feed diet.
# (§7) After a period of acclimation, sodium tungstate was administered in the drinking water (ad libitum) by means of a 2 mg/ml solution of sodium tungstate dihydrate (marketed by Carlo Erba) in distilled water after the pre-treatment phase (day 0 of treatment) and for 12 days.
# (§8) Body weight was monitored on day 0, 2, 5, 7, 9 and 12 of the treatment period, and after 6 hours of fasting on each of the aforementioned days blood glucose was determined by means of withdrawing blood from the tail vein and with a glucose sensor (Roche AccuTrend Glucose Sensor. Mannheim, Germany).
# Body weight study = assay type: in vivo, mouse; conditions: for Body weight, Average: average of 6 IRS2−/− female mice; for variation in body weight during administration: first 12 days of treatment, IRS2−/− female mice; for variation in body weight during administration / Body weight: dihydrate; for Body weight: individual IRS2−/− female mice
# Method: as §5, §6, §7, §8
# [4] = test system: female rats with streptozotocin-induced diabetes; conditions: cited from earlier work
# [5] = test system: women whose ovulation is irregular or absent; conditions: cited from earlier work
# [6] = individual treated IRS2−/− female mice, dihydrate
smiles,measurement,setting,value
"O.O.[Na+].[Na+].[O]=[W](=[O])([O-])[O-] [sodium tungstate, sodium tungstate dihydrate]",phase of the estrous cycle,"IRS2−/− female mice [1]; day 7 of treatment, 2 mg/ml in drinking water (about 180 mg/kg/day)",M and E (4×) and E-M
same,phase of the estrous cycle,"IRS2−/− female mice [1]; day 8 of treatment, 2 mg/ml in drinking water",M and E-M (3×) and E (2×)
same,phase of the estrous cycle,"IRS2−/− female mice [1]; day 14 of treatment, 2 mg/ml in drinking water",E and E-M (3×) and D
same,phase of the estrous cycle,"IRS2−/− female mice [1]; day 15 of treatment, 2 mg/ml in drinking water",D and E (2×) and M (2×) and A
same,phase of the estrous cycle,"IRS2−/− female mice [1]; day 22 of treatment, 2 mg/ml in drinking water",D (2×) and A (2×) and M and P
same,"recovery of the estrous cycle, percentage of analyzed mice","IRS2−/− female mice [1]; infertile non-diabetic IRS2−/− female mice, on the seventh day of treatment",100%
same,Pregnancy,"IRS2−/− female mice [2]; individual treated IRS2−/− female mice, mated with IRS2wt males, dihydrate",YES
same,Number of implanted embryos or young born (embryos),IRS2−/− female mice [2]; [6],7 embryos (3×) and 6 embryos
same,Number of implanted embryos or young born (young),IRS2−/− female mice [2]; [6],8 young (2×) and 1 young and 3 young
same,pregnancy rate,IRS2−/− female mice [2]; treated IRS2−/− female mice (untreated 9%),80%
same,mean number of young/implanted embryos per female mouse pregnancy,IRS2−/− female mice [2]; dihydrate,about 5
same,mean number of young/implanted embryos per female mouse pregnancy,"IRS2−/− female mice [2]; listed as tungsten (VI) salt, dihydrate",5
same,"glycemia, Average",[3]; Day 0 (start of treatment),128.17 mg/dL
same,"glycemia, Average",[3]; Day 2,117.33 mg/dL
same,"glycemia, Average",[3]; Day 5,122.33 mg/dL
same,"glycemia, Average",[3]; Day 7,118.83 mg/dL
same,"glycemia, Average",[3]; Day 9,125.17 mg/dL
same,"glycemia, Average",[3]; Day 12,118.83 mg/dL
same,variation in glycemia during administration,[3],no variations are observed
same,variation in glycemia during administration,[3]; listed as tungsten (VI) salt,does not modify
same,glycemia,"[3]; Day 0 (start of treatment), 6 h fasting",146 mg/dL and 129 mg/dL and 115 mg/dL and 126 mg/dL and 141 mg/dL and 112 mg/dL
same,glycemia,"[3]; Day 2, 6 h fasting",136 mg/dL and 128 mg/dL and 118 mg/dL and 110 mg/dL and 105 mg/dL and 107 mg/dL
same,glycemia,"[3]; Day 5, 6 h fasting",125 mg/dL and 142 mg/dL and 114 mg/dL and 111 mg/dL and 137 mg/dL and 105 mg/dL
same,glycemia,"[3]; Day 7, 6 h fasting",140 mg/dL and 110 mg/dL and 106 mg/dL and 89 mg/dL and 133 mg/dL and 135 mg/dL
same,glycemia,"[3]; Day 9, 6 h fasting",125 mg/dl (2×) and 153 mg/dl and 109 mg/dl and 108 mg/dl and 131 mg/dl
same,glycemia,"[3]; Day 12, 6 h fasting",136 mg/dL and 116 mg/dL and 111 mg/dL and 86 mg/dL and 123 mg/dL and 141 mg/dL
same,"Body weight, Average",Body weight study; Day 0 (start of treatment),17.03 g
same,"Body weight, Average",Body weight study; Day 2,17.33 g
same,"Body weight, Average",Body weight study; Day 5,16.97 g
same,"Body weight, Average",Body weight study; Day 7,16.84 g
same,"Body weight, Average",Body weight study; Day 9,17.35 g
same,"Body weight, Average",Body weight study; Day 12,17.72 g
same,variation in body weight during administration,Body weight study,no variations are observed
same,variation in body weight during administration,Body weight study; listed as tungsten (VI) salt,does not modify
same,Body weight,Body weight study; Day 0 (start of treatment),22.7 g and 15.33 g and 18.21 g and 16.5 g and 13.99 g and 15.45 g
same,Body weight,Body weight study; Day 2,22.9 g and 14.84 g and 18.98 g and 17.01 g and 14.18 g and 16.04 g
same,Body weight,Body weight study; Day 5,22.61 g and 14.89 g and 18.2 g and 16.61 g and 13.79 g and 15.72 g
same,Body weight,Body weight study; Day 7,22.42 g and 15.07 g and 17.81 g and 16.35 g and 13.74 g and 15.66 g
same,Body weight,Body weight study; Day 9,22.85 g and 15.56 g and 17.9 g and 16.89 g and 14.5 g and 16.39 g
same,Body weight,Body weight study; Day 12,23.15 g and 15.91 g and 18.24 g and 17.19 g and 14.92 g and 16.89 g
same,circulating insulin levels,"[4]; rats with streptozotocin-induced insulinopenia and diabetes, prolonged treatment (10 weeks)",partially recover
same,percentage of births with respect to the number of positive curettages,"[4]; streptozotocin-diabetic females after 10 weeks of treatment, mated with healthy males (non-diabetic 100%)",66%
CCN(CC)CCOc1ccc(C(=C(Cl)c2ccccc2)c2ccccc2)cc1 [clomiphene citrate],pregnancy rate,[5],≤ 50%
same,restoring ovulation,[5],high percentage

# Source: patent US9675638B2, “Use of tungsten (VI) salts for the treatment of female infertility in non-diabetic mammals” (OXOLIFE, S.L., priority 2013, dated 2017)
